“And” between values parts separate entries of the source, which are not always exact repeats. Equal values may be shown once.
Tested on: green pea aphid (Myzus persicae)
Assay: Aphid mortality on leaf discs, Potters tower, K4B3 extract versus beauvericin
Assay type: in vivo
Description: Table 7 below presents mortality observed amongst green pea aphid (Myzus persicae) present on Asian brassica leaf discs. Asian brassica leaf discs were placed on 1% water agar in Petri dishes. […] The sprayed Petri dishes were placed dorsal side down on paper towels to allow surfaces to dry. Five replicates of each treatment were done. Mortality was assessed 48 hours after application.

[1] = per replicate, 2 mL sprayed, 48 hours, beauvericin solution 50 μg/mL with 2.5 mL millennium oil/L
[2] = total of replicates, 2 mL sprayed, 48 hours

## beauvericin
Beauvericin alone, Table 7
  mortality compared with the water control: not significantly different
Beauvericin even at 50,000 μg/L
  aphid mortality (in words): very low
[1]
  Alive Adult: 0 (3×) and 8 and 10
  Alive Juv.: 0 (3×) and 22 and 28
  Dead Adult: 0 (4×) and 1
  Dead Juv.: 0 (3×) and 1 and 3
[2]
  Total Alive Adult: 18
  Total Alive Juv.: 50
  Total Dead Adult: 1
  Total Dead Juv.: 4

Source: patent publication US20150050244A1, “Entomopathogenic Fungi and Uses Thereof” (priority 2008, published 2015)
